From PubChem BioAssay AID330 (DTP/NCI, 2004)
“And” between values parts separate entries of the source, which are not always exact repeats. Equal entries are not always repeated. Toxic doses and inconclusive results are not listed. The calls were made as follows: active = survival T/C of 150% or more; inactive = T/C below 125% in these data.

Tested on: P388 leukemia ip, CD2F1 mice, survival T/C
Experiment: NCI In Vivo Anticancer Drug Screen. Data for tumor model P388 Leukemia (intraperitoneal) in CD2F1 (CDF1) mice
Details: endpoint: median survival time, higher = longer survival
Method in brief: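 Mice carrying the transplanted tumor received test compound or vehicle. Survival was recorded in each group, and the value is the treated-group measurement divided by that of the vehicle-treated control group.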

[1] = dose: 60.0 mg/kg/injection, schedule: Q01DX005 (ip), vehicle: saline with Tween-80
[2] = dose: 120.0 mg/kg/injection, schedule: Q01DX005 (ip), vehicle: saline with Tween-80
[3] = dose: 240.0 mg/kg/injection, schedule: Q01DX005 (ip), vehicle: saline with Tween-80
[4] = dose: 25.0 mg/kg/injection, schedule: Q01DX005 (ip), vehicle: Klucel (hydroxypropylcellulose) (HPC)
[5] = dose: 50.0 mg/kg/injection, schedule: Q01DX005 (ip), vehicle: Klucel (hydroxypropylcellulose) (HPC)
[6] = dose: 100.0 mg/kg/injection, schedule: Q01DX005 (ip), vehicle: Klucel (hydroxypropylcellulose) (HPC)
[7] = dose: 200.0 mg/kg/injection, schedule: Q01DX005 (ip), vehicle: Klucel (hydroxypropylcellulose) (HPC)
[8] = dose: 100.0 mg/kg/injection, schedule: Q01DX001 (ip), vehicle: Klucel (hydroxypropylcellulose) (HPC)
[9] = dose: 200.0 mg/kg/injection, schedule: Q01DX001 (ip), vehicle: Klucel (hydroxypropylcellulose) (HPC)
[10] = dose: 400.0 mg/kg/injection, schedule: Q01DX001 (ip), vehicle: Klucel (hydroxypropylcellulose) (HPC)
[11] = dose: 50.0 mg/kg/injection, schedule: Q01DX009 (ip), vehicle: saline with Tween-80
[12] = dose: 100.0 mg/kg/injection, schedule: Q01DX009 (ip), vehicle: saline with Tween-80
[13] = dose: 200.0 mg/kg/injection, schedule: Q01DX009 (ip), vehicle: saline with Tween-80
[14] = dose: 100.0 mg/kg/injection, schedule: Q01DX001 (ip), vehicle: saline with Tween-80
[15] = dose: 200.0 mg/kg/injection, schedule: Q01DX001 (ip), vehicle: saline with Tween-80
[16] = dose: 400.0 mg/kg/injection, schedule: Q01DX001 (ip), vehicle: saline with Tween-80
[17] = dose: 100.0 mg/kg/injection, schedule: Q04DX002 (ip), vehicle: saline with Tween-80
[18] = dose: 200.0 mg/kg/injection, schedule: Q04DX002 (ip), vehicle: saline with Tween-80

Measured: T/C

COC(=O)c1nnn(-c2c(C)cccc2C(C)C)c1C(=O)c1ccccc1
inactive: [1] 100 % of control | [2] 109 % of control | [3] 94 % of control

COC(=O)C(C)NC(=O)C(CCSC)NC(=O)OC(C)(C)C (stereo not drawn)
inactive: [4] 98 % of control | [5] 100 % of control and 102 % of control | [6] 95 % of control | [7] 104 % of control

CC1(C)C2CCC([CH2][Hg][Cl])C1C2 (stereo not drawn)
inactive: dose: 2.44 mg/kg/injection, schedule: Q01DX009 (ip), vehicle: saline with Tween-80 100 % of control | dose: 3.66 mg/kg/injection, schedule: Q01DX009 (ip), vehicle: saline with Tween-80 100 % of control | dose: 5.55 mg/kg/injection, schedule: Q01DX009 (ip), vehicle: other 113 % of control | dose: 5.55 mg/kg/injection, schedule: Q01DX009 (ip), vehicle: saline with Tween-80 100 % of control and 91 % of control | dose: 6.25 mg/kg/injection, schedule: Q04DX003 (ip), vehicle: other 105 % of control | dose: 8.33 mg/kg/injection, schedule: Q01DX009 (ip), vehicle: saline with Tween-80 108 % of control and 95 % of control | dose: 12.5 mg/kg/injection, schedule: Q01DX009 (ip), vehicle: other 86 % of control | dose: 12.5 mg/kg/injection, schedule: Q04DX003 (ip), vehicle: other 100 % of control | dose: 25.0 mg/kg/injection, schedule: Q04DX003 (ip), vehicle: other 100 % of control

CSc1nc(N)c(C(N)=O)s1
inactive: dose: 50.0 mg/kg/injection, schedule: Q01DX009 (ip), vehicle: Klucel (hydroxypropylcellulose) (HPC) 100 % of control | dose: 100.0 mg/kg/injection, schedule: Q01DX009 (ip), vehicle: Klucel (hydroxypropylcellulose) (HPC) 103 % of control | dose: 200.0 mg/kg/injection, schedule: Q01DX009 (ip), vehicle: Klucel (hydroxypropylcellulose) (HPC) 109 % of control

CC1(CC(=O)O)OC(c2ccccc2)=CC1=O (stereo not drawn)
inactive: [8] 98 % of control | [9] 92 % of control | [10] 92 % of control

O=C(NCCCl)OCC(Cl)(Cl)Cl
inactive: [11] 91 % of control | [12] 100 % of control | [13] 98 % of control

CCCC1(C)COC(c2ccc(OC)cc2)OC1 (stereo not drawn)
inactive: [11] 103 % of control | [14] 109 % of control | [12] 112 % of control | [15] 102 % of control | [13] 103 % of control | [16] 104 % of control

COc1ccc(/C(O)=C/c2nc3cccc([N+](=O)[O-])c3[nH]c2=O)cc1
inactive: dose: 15.0 mg/kg/injection, schedule: Q01DX005 (ip), vehicle: saline with Tween-80 91 % of control | dose: 30.0 mg/kg/injection, schedule: Q01DX005 (ip), vehicle: saline with Tween-80 91 % of control | [1] 86 % of control

COc1ccc2[s+]c(-c3ccccc3)ccc2c1
inactive: dose: 60.0 mg/kg/injection, schedule: Q01DX005 (ip), vehicle: Klucel (hydroxypropylcellulose) (HPC) 100 % of control | dose: 120.0 mg/kg/injection, schedule: Q01DX005 (ip), vehicle: Klucel (hydroxypropylcellulose) (HPC) 108 % of control | dose: 240.0 mg/kg/injection, schedule: Q01DX005 (ip), vehicle: Klucel (hydroxypropylcellulose) (HPC) 111 % of control

COc1cc(OC(=O)N(CCCl)N=O)cc(OC)c1OC
inactive: dose: 12.5 mg/kg/injection, schedule: Q01DX001 (ip), vehicle: Klucel (hydroxypropylcellulose) (HPC) 112 % of control | dose: 25.0 mg/kg/injection, schedule: Q01DX001 (ip), vehicle: Klucel (hydroxypropylcellulose) (HPC) 101 % of control | dose: 50.0 mg/kg/injection, schedule: Q01DX001 (ip), vehicle: Klucel (hydroxypropylcellulose) (HPC) 103 % of control

ON(C=S)c1ccccc1
inactive: dose: 50.0 mg/kg/injection, schedule: Q01DX005 (ip), vehicle: saline with Tween-80 102 % of control | dose: 100.0 mg/kg/injection, schedule: Q01DX005 (ip), vehicle: saline with Tween-80 105 % of control | dose: 200.0 mg/kg/injection, schedule: Q01DX005 (ip), vehicle: saline with Tween-80 97 % of control

O=C(O)Cn1/c(=N\N=C\c2ccccc2)sc2ccccc21
inactive: [14] 101 % of control | [15] 91 % of control | [16] 93 % of control

Cc1ccc2c(c1)-c1nc3nnnn3nc1C(C)(C)O2
inactive: [1] 92 % of control | [2] 95 % of control | [3] 98 % of control

O=C1c2ccccc2-c2c1c1ccccc1n2S(=O)(=O)c1ccccc1
inactive: [8] 103 % of control | [9] 103 % of control | [10] 101 % of control

CC(=O)Nc1ccc(NN=O)cn1
inactive: dose: 3.12 mg/kg/injection, schedule: Q01DX009 (ip), vehicle: water 113 % of control | dose: 6.25 mg/kg/injection, schedule: Q01DX009 (ip), vehicle: water 106 % of control | dose: 12.5 mg/kg/injection, schedule: Q01DX009 (ip), vehicle: water 110 % of control and 114 % of control | dose: 25.0 mg/kg/injection, schedule: Q01DX009 (ip), vehicle: water 116 % of control

C/C=C/c1cc2c(c(=O)o1)C(=O)[C@@H](O)[C@H](C)O2
inactive: dose: 12.5 mg/kg/injection, schedule: Q01DX009 (ip), vehicle: saline with Tween-80 101 % of control | dose: 25.0 mg/kg/injection, schedule: Q01DX009 (ip), vehicle: saline with Tween-80 101 % of control | dose: 44.0 mg/kg/injection, schedule: Q01DX009 (ip), vehicle: saline with Tween-80 112 % of control | [11] 110 % of control | dose: 66.0 mg/kg/injection, schedule: Q01DX009 (ip), vehicle: saline with Tween-80 121 % of control

COc1cc(OC)c2ccc(=O)oc2c1/C=C\C1(C)CCC(C)=CC1c1c(OC)cc(OC)c2ccc(=O)oc12 (stereo not drawn)
inactive: dose: 2.5 mg/kg/injection, schedule: Q01DX005 (ip), vehicle: Klucel (hydroxypropylcellulose) (HPC) 96 % of control | dose: 5.0 mg/kg/injection, schedule: Q01DX005 (ip), vehicle: Klucel (hydroxypropylcellulose) (HPC) 105 % of control | dose: 10.0 mg/kg/injection, schedule: Q01DX005 (ip), vehicle: Klucel (hydroxypropylcellulose) (HPC) 117 % of control | dose: 20.0 mg/kg/injection, schedule: Q01DX005 (ip), vehicle: Klucel (hydroxypropylcellulose) (HPC) 96 % of control | dose: 40.0 mg/kg/injection, schedule: Q01DX005 (ip), vehicle: Klucel (hydroxypropylcellulose) (HPC) 86 % of control

CCn1cc(C(=O)O)c(=O)c2ccc(C)nc21 (tested in a mixture with another compound)
inactive: [17] 99 % of control | [18] 91 % of control

COC(=O)n1oc2ccc(Br)cc2c1=O
inactive: [5] 98 % of control | [6] 100 % of control | [7] 106 % of control

Clc1cccc(Cl)c1C(Nc1ncccn1)Nc1ncccn1
inactive: [5] 106 % of control | [6] 100 % of control | [7] 97 % of control

Cc1nc2ccccc2nc1N
inactive: [1] 94 % of control | [2] 98 % of control | [3] 98 % of control

NC(=O)/C(N=Nc1ccccc1)=N\Nc1ccccc1
inactive: dose: 6.25 mg/kg/injection, schedule: Q01DX005 (ip), vehicle: Klucel (hydroxypropylcellulose) (HPC) 91 % of control | dose: 12.5 mg/kg/injection, schedule: Q01DX005 (ip), vehicle: Klucel (hydroxypropylcellulose) (HPC) 91 % of control | [4] 87 % of control

N#CC1(N)CC2CCCCC2CC1c1ccccc1 (stereo not drawn)
inactive: [17] 106 % of control | [18] 101 % of control | dose: 400.0 mg/kg/injection, schedule: Q04DX002 (ip), vehicle: saline with Tween-80 101 % of control

C/C(=N\N=C(/N)N1CCCC1)c1ccc2c(c1)Cc1cc(/C(C)=N/N=C(\N)N3CCCC3)ccc1-2
inactive: dose: 25.0 mg/kg/injection, schedule: Q04DX002 (ip), vehicle: saline with Tween-80 98 % of control | dose: 50.0 mg/kg/injection, schedule: Q04DX002 (ip), vehicle: saline with Tween-80 98 % of control

O=C1c2ccccc2-c2c(NC(=O)C(Cl)Cl)cccc21
inactive: [5] 87 % of control | [6] 86 % of control | [7] 86 % of control
